Measurements taken from patent publication US10851067B2, “Kv7 channel activators compositions and methods of use” (Knopp Biosciences LLC, priority 2018, dated 2020).

Biological target: Kv7.2/7.3 (Homo sapiens, UniProt O43525+O43526)
Assay: Kv7.2/7.3 Activation Assay, QPatch single concentration screen
Assay type: cell-based
Design: host or cells: HEK cells, tetracycline-inducible expression; key: 1.2-2.9 (+); 3-3.9 (++); >4 (+++) fold increase over baseline; O represents open channel at holding potential
Conditions: Kv7.2/Kv7.3 co-expressing HEK cells, compound concentration 3 μM, steady-state current at end of 2 s pulse to −30 mV
Description: Kv7.2/7.3 Activation Assay
The ability of compounds to potentiate K-currents in Kv7.2/7.3 containing HEK cells was assessed using planar patch-clamp on the QPatch automated screening platform.
The hKv7.2/7.3 cell line was obtained from Chantest (Cleveland, Ohio 44128) cat. #CT6147. These HEK cells will express the Kv7.2/7.3 ion channels when induced.
Cells were maintained in a media containing DMEM/F12; 50/50 (GIBCO cat. #11330), 10% Fetal Bovine Serum (FBS) (GIBCO cat. #26140), 100 units/mL Penicillin-Streptomycin (GIBCO cat. #15140), 0.005 mg/mL Blasticidin (INVIVOGEN cat. #ant-b1-1), 0.5 mg/mL Geneticin (GIBCO cat. #10131), 0.1 mg/mL Zeocin (GIBCO cat. #R25001). Cells used in the electrophysiology assay were maintained in a media without Blasticidin, Geneticin and Zeocin for 2 days and channel expression was induced by adding tetracycline (BIOLINE cat. #BIO-87030) at a final concentration of 1 mg/mL. Cells were grown in T-175 flask to ˜75% confluency. Currents were recorded 24 hours after channel induction.
Test compounds were prepared by performing serial dilutions on a Biomek NX^P (BECKMAN COULTER). Final dilutions were made in external recording solution with a final DMSO concentration of 0.1% DMSO. For single concentration screens each plate had 10 μM retigabine as a positive control and 0.1% DMSO as a negative control.
On the day of the experiment cells were washed with Hank's Balanced Salt Solution (HBBS) (GIBCO cat. #14175) and harvested with Tryple (GIBCO cat. #12604). Cells were then centrifuged at 2000 rpm for 5 minutes and resuspended in CHO-S-SFM (GIBCO cat. #12052) at ˜3×10^6 cells/mL. Cells were stirred for 30 minutes before experiments were started. External recording solution contained (in mM): NaCl (145), KCl (4), CaCl2 (2), MgCl2 (1), HEPES (10) and Glucose (10); pH was adjusted to 7.4 with NaOH and the osmolarity was adjusted to 300-305 mOsM with sucrose if necessary. Internal solution contained (in mM): KCl (125), KF (10), EGTA (5), Na2ATP (5), MgCl2 (3.2), HEPES (5); pH was adjusted to 7.2 with KOH and the osmolarity was adjusted to 298-302 mOsM with sucrose.
Potassium channel activity was measured on the QPatch HTX (Sophion Bioscience) using QPlates with 48-wells/plate. Each cell was taken as an independent experiment and only one compound was tested per well. Potassium channel activity was elicited by holding at −80 mV and stepping to −30 mV for 2 s followed by a 100 ms pulse to −120 mV.
Single Concentration Screen:
Baseline conditions were obtained by recording 5 sweeps in the external solution only, this was repeated for three applications of the external solution. The effect of test compounds on elicited current was then assessed by recording 5 sweeps in the presence of a 3 μM compound solution. The steady-state current at the end of the 2 s pulse to −30 mV was measured to determine the fold increase from baseline.

| Kv7.2/7.3 Activity: increase over baseline in current | Structure (SMILES) |
| --- | --- |
| + (1.2-2.9 (+)) | CC(C)(C)Cn1c(NC(=O)CC(C)(O)c2ccccc2)nc2ccc(C#N)cc21 (single isomer, unassigned) [Example 341, N-(6-cyano-1-neopentyl-1H-benzo[d]imidazol-2-yl)-3-hydroxy-3-phenylbutanamide] |
| + (1.2-2.9 (+)) | CC(O)(CC(=O)Nc1nc2ccc(C#N)cc2n1CC1CC1)c1ccccc1 (single isomer, unassigned) [Example 344, N-(6-cyano-1-(cyclopropylmethyl)-1H-benzo[d]imidazol-2-yl)-3-hydroxy-3-phenylbutanamide] |
| + (1.2-2.9 (+)) | CC(O)(CC(=O)Nc1nc2cc(Cl)c(C#N)cc2n1C1CCC1)c1ccccc1 (single isomer, unassigned) [Example 347, N-(5-chloro-6-cyano-1-cyclobutyl-1H-benzo[d]imidazol-2-yl)-3-hydroxy-3-phenylbutanamide] |
| + (1.2-2.9 (+)) | CC(O)(CC(=O)Nc1nc2cc(F)c(C#N)cc2n1C1CCC1)c1ccccc1 (single isomer, unassigned) [Example 350, N-(6-cyano-1-cyclobutyl-5-fluoro-1H-benzo[d]imidazol-2-yl)-3-hydroxy-3-phenylbutanamide] |
| + (1.2-2.9 (+)) | CC(O)(CC(=O)Nc1nc2ccc(C#N)cc2n1CC(F)(F)F)c1ccccc1 (single isomer, unassigned) [Example 396, N-(6-cyano-1-(2,2,2-trifluoroethyl)-1H-benzo[d]imidazol-2-yl)-3-hydroxy-3-phenylbutanamide] |
| ++ (3-3.9 (++)) | CC(O)(CC(=O)Nc1nc2ccc(OC(F)F)cc2n1C1CCC1)c1ccccc1 (single isomer, unassigned) [Example 402, N-(1-cyclobutyl-6-(difluoromethoxy)-1H-benzo[d]imidazol-2-yl)-3-hydroxy-3-phenylbutanamide] |
| + (1.2-2.9 (+)) | CC(O)(CC(=O)Nc1nc2ccc(OC(F)F)cc2n1C1CCC1)c1ccccc1 (single isomer, unassigned) [Example 422, N-(1-cyclobutyl-6-(difluoromethoxy)-1H-benzo[d]imidazol-2-yl)-3-hydroxy-3-phenylbutanamide] |

More lines, now with the values behind:

| Structure (SMILES) | Kv7.2/7.3 Activity: increase over baseline in current |
| --- | --- |
| CC(C)(O)c1ccc2nc(NC(=O)CC(C)(O)c3ccccc3)n(C34CC(C3)C4)c2c1 (single isomer, unassigned) [Example 335, N-(1-(bicyclo[1.1.1]pentan-1-yl)-6-(2-hydroxypropan-2-yl)-1H-benzo[d]imidazol-2-yl)-3-hydroxy-3-phenylbutanamide] | O |
| CC(O)(CC(=O)Nc1nc2c(F)cc(C#N)cc2n1C(C)(C)C)c1cccc(F)c1 (single isomer, unassigned) [Example 339, N-(1-(tert-butyl)-6-cyano-4-fluoro-1H-benzo[d]imidazol-2-yl)-3-(3-fluorophenyl)-3-hydroxybutanamide] | O |
| CC(O)(CC(=O)Nc1nc2c(F)cc(C#N)cc2n1C(C)(C)C)c1ccccc1F (single isomer, unassigned) [Example 348, N-(1-(tert-butyl)-6-cyano-4-fluoro-1H-benzo[d]imidazol-2-yl)-3-(2-fluorophenyl)-3-hydroxybutanamide] | O |
| COc1cccc2nc(NC(=O)CC(C)(O)c3ccccc3)n(C3CCC3)c12 (single isomer, unassigned) [Example 358, N-(1-cyclobutyl-7-methoxy-1H-benzo[d]imidazol-2-yl)-3-hydroxy-3-phenylbutanamide] | + (1.2-2.9 (+)) |
| CC(=O)c1c(F)ccc2nc(NC(=O)CC(C)(O)c3ccccc3)n(C3(C)CCC3)c12 (single isomer, unassigned) [Example 360, N-(7-acetyl-6-fluoro-1-(1-methylcyclobutyl)-1H-benzo[d]imidazol-2-yl)-3-hydroxy-3-phenylbutanamide] | O |
| CC(C)(O)c1ccc2nc(NC(=O)CC(C)(O)c3ccccc3)n(C34CC(C3)C4)c2c1 (single isomer, unassigned) [Example 371, N-(1-(bicyclo[1.1.1]pentan-1-yl)-6-(2-hydroxypropan-2-yl)-1H-benzo[d]imidazol-2-yl)-3-hydroxy-3-phenylbutanamide] | O |
| CC(O)(CC(=O)Nc1nc2cc(F)c(C#N)cc2n1C1(C)CCC1)c1ccccc1F (single isomer, unassigned) [Example 373, N-(6-cyano-5-fluoro-1-(1-methylcyclobutyl)-1H-benzo[d]imidazol-2-yl)-3-(2-fluorophenyl)-3-hydroxybutanamide] | ++ (3-3.9 (++)) |
| CC(O)(CC(=O)Nc1nc2ccc(OC(F)F)c(F)c2n1C1(C)CCC1)c1ccccc1 (single isomer, unassigned) [Example 374, N-(6-(difluoromethoxy)-7-fluoro-1-(1-methylcyclobutyl)-1H-benzo[d]imidazol-2-yl)-3-hydroxy-3-phenylbutanamide] | ++ (3-3.9 (++)) |
| CC(O)(CC(=O)Nc1nc2cccc(C#N)c2n1C1(C)CCC1)c1ccccc1 (single isomer, unassigned) [Example 375, N-(7-cyano-1-(1-methylcyclobutyl)-1H-benzo[d]imidazol-2-yl)-3-hydroxy-3-phenylbutanamide] | + (1.2-2.9 (+)) |
| CC(C)(O)c1ccc2nc(NC(=O)CC3CC(F)(F)C3(F)F)n(C3(C)CCC3)c2c1 (single isomer, unassigned) [Example 376, N-(6-(2-hydroxypropan-2-yl)-1-(1-methylcyclobutyl)-1H-benzo[d]imidazol-2-yl)-2-(2,2,3,3-tetrafluorocyclobutyl)acetamide] | + (1.2-2.9 (+)) |
| CC(O)(CC(=O)Nc1nc2ccc(C#N)cc2n1C1(C)CCC1)c1c(F)cccc1F (single isomer, unassigned) [Example 384, N-(6-cyano-1-(1-methylcyclobutyl)-1H-benzo[d]imidazol-2-yl)-3-(2,6-difluorophenyl)-3-hydroxybutanamide] | ++ (3-3.9 (++)) |
| CC(C)(O)c1ccc2nc(NC(=O)CC3CC(F)(F)C3(F)F)n(C3CCC3)c2c1 (single isomer, unassigned) [Example 398, N-(1-cyclobutyl-6-(2-hydroxypropan-2-yl)-1H-benzo[d]imidazol-2-yl)-2-(2,2,3,3-tetrafluorocyclobutyl)acetamide] | + (1.2-2.9 (+)) |
| CC(C)(O)c1cc(F)c2nc(NC(=O)CC3CC(F)(F)C3(F)F)n(C3CCC3)c2c1 (single isomer, unassigned) [Example 400, N-(1-cyclobutyl-4-fluoro-6-(2-hydroxypropan-2-yl)-1H-benzo[d]imidazol-2-yl)-2-(2,2,3,3-tetrafluorocyclobutyl)acetamide] | +++ (>4 (+++) fold increase over baseline) |
| CC(C)(C)n1c(NC(=O)CC2CC(F)(F)C2(F)F)nc2c(F)cc(C#N)cc21 (single isomer, unassigned) [Example 416, N-(1-(tert-butyl)-6-cyano-4-fluoro-1H-benzo[d]imidazol-2-yl)-2-(2,2,3,3-tetrafluorocyclobutyl)acetamide] | ++ (3-3.9 (++)) |
| CC(O)(CC(=O)Nc1nc2ccc(OC(F)F)cc2n1C(C)(C)C)c1ccccc1 (single isomer, unassigned) [Example 418, N-(1-(tert-butyl)-6-(difluoromethoxy)-1H-benzo[d]imidazol-2-yl)-3-hydroxy-3-phenylbutanamide] | ++ (3-3.9 (++)) |
